{
  "source": "patent US10842845B2",
  "about": "“Oxytocin improves treatment of obstructive sleep apnea” (THE GEORGE WASHINGTON UNIVERSITY, priority 2014, dated 2020)",
  "key": {"[1]": {"system": "DREADDs-expressing PVN OXT neurons", "test": "Whole-cell patch clamp of DREADDs-expressing PVN OXT neurons, CNO application", "format": "cell-based, rat", "text": "CVNs in NA and DMNX were identified by the presence of fluorescent tracer rhodamine and imaged using differential interference contrast optics and infrared illumination. Whole cell voltage clamp recordings from CVNs were done using Axopatch 200B and pClamp 8 software (Axon Instruments, Union city, USA), at a holding voltage of −80 mV at room temperature. The patch pipettes (2.5-5 MΩ) were filled with a solution consisting (in mM) of KCl (150), MgCl2 (4), EGTA (10), Na-ATP (2) and HEPES (10) or K-gluconic acid (150), HEPES (10), EGTA (10), MgCl2 (1) and CaCl2 (1) at a pH of 7.3 for recording inhibitory or excitatory events respectively. For PVN studies, forebrain slices were used for electrophysiology recordings.\nA rat minimal oxytocin (OXT) promoter element from ˜530 bp to +33 relative to the origin of transcription of the OXT gene (UCSC genome browser on rat November 2004 assembly; chr3:118,193,690 to 118,194,252) was synthesized de novo and flanked by multiple cloning sites (Genscript, Piscataway, N.J.) (McCann et al., 2002; Petersson et al., 1996). […] Expression of these Cre-dependent vectors will only be initiated in neurons selectively expressing Cre as they contain silencing double-foxed inverse open reading frames (Sawchenko and Swanson, 1982). […]"}, "[2]": {"biological_target": "T1, DREADDs receptors on PVN OXT neurons (Homo sapiens, UniProt P20309, A239G/Y149C)", "T1 construct": "mCherry (C); host or cells: PVN oxytocin neurons of Sprague-Dawley rats, in vivo, transduced with AAV2-hSyn-DIO-hM3D(Gq)-mCherry and rAAV1-OXT-Cre", "T1 sequence (P20309 whole entry Y149C/A239G, the tested form may be a part)": "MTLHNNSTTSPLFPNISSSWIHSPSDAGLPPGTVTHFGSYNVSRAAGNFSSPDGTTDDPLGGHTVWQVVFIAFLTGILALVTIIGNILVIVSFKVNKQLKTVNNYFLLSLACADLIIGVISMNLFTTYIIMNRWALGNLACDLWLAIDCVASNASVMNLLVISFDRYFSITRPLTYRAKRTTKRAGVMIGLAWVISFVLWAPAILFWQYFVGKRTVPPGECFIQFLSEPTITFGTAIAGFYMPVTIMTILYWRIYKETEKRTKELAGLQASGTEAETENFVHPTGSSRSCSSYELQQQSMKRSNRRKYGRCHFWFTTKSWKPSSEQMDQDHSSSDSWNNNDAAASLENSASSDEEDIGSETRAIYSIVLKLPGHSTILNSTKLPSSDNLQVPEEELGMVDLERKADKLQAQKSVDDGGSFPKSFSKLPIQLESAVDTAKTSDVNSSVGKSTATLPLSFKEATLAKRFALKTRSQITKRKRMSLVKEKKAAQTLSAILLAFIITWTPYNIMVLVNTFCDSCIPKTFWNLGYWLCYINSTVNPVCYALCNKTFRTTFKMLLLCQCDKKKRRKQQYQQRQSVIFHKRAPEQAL", "test": "Telemetry of resting blood pressure and heart rate before and after CNO injection", "format": "in vivo, Sprague-Dawley rats", "text": "To record blood pressure and heart rate, male Sprague-Dawley rats, 3-4 weeks of age, were anesthetized using isoflurane (2-4%) and a HD-XII pressure transmitter was implanted (Data Sciences International, St Paul, Minn., USA) with its cathether inserted into the abdominal aorta to record pressure and EKG leads were attached subcutaneously to obtain EKG recordings and heart rate. All rats with telemetry devices were allowed 7-14 days to recover from transmitter implantation surgery before any measurements were recorded. Blood pressure and heart rate were recorded via radio-frequency signals obtained through the Ponemah data acquisition system (Data Sciences International). Baseline recordings of blood pressure and heart rate were obtained for 3 days prior to CIH/H exposure. Prior to, and during, the 28 day CIH/H exposure period daily baseline recordings of blood pressure and heart rate were recorded.\n1-2 weeks after telemetry implantation, DREADDs receptors on PVN OXT neurons were activated daily by intraperitoneal (IP) injection of clozapine-n-oxide (CNO, 1.0 mg/kg). To investigate the effects of CNO on resting BP and HR in both DREADDs-expressing and sham animals, 3 days prior to CIH/H exposure (control days) baseline BP and HR values were recorded for a 20 min period before CNO injection. Animals from each group then received an IP injection of CNO, BP and HR were recorded for 1 hr, and the animals then underwent exposure to air for 8 hr to achieve acclimation to the chambers. During the 21 days of CIH/H exposure, baseline recordings of BP and HR were obtained before CNO injection, recorded for 1 hr post CNO injection, and for the entire duration of OHM exposure.\nTo examine the effects of CNO on and the chronic changes to mean arterial blood pressure (MAP) over the 21 days of OHM exposure, values were recorded before and after CNO injection on control days prior to CIH exposures, and days 1, 3, 6, 9, 12, 15, 18, and 21 of CIH/H. Changes within the DREADDs-expressing animals and the sham animals were statistically analyzed by one-way ANOVA with repeated-measures followed by Bonferroni's multiple comparison test. To examine the statistical changes in MAP between the two groups of animals, a two-way ANOVA with repeated-measures followed by Bonferroni's multiple comparison test was used. Data with p<0.05 were considered significant.\nCNO administration had no effect on BP represented as mean arterial pressure (MAP) and HR in sham animals without DREADDs expression (FIGS. 10A and 10B). However, CNO administration that activates DREADDs receptors in PVN OXT neurons decreased resting HR and BP throughout 21 days of CIH/H exposure, with significant decreases in MAP (104±2.6 mmHg before CNO to 93±1.7 mmHg after CNO; n=8; ^+p<0.0001; paired t test; FIG. 10A) and HR (416±7.1 beats/min before CNO to 362±10.5 beats/min after CNO; n=8; ^+p<0.01; paired t test; FIG. 10B)."}},
  "note": "“Also recorded” adds a separate entry of the source.",
  "data": [
    {"molecule": "C[N+]1([O-])CCN(C2=Nc3cc(Cl)ccc3Nc3ccccc32)CC1", "note": "[CNO, clozapine-n-oxide]", "values": [
      {"measurement": "firing of PVN OXT neurons expressing DREADDs with CNO application (in words)", "setting": "[1]; before CNO vs post CNO, 7 neurons", "value": "significantly increases"},
      {"measurement": "action potential firing frequency of DREADDs-expressing PVN neurons after CNO application", "setting": "[1]; within 5 min of CNO application, from 0.19±0.05 Hz before CNO, n=7", "value": "0.75±0.14", "unit": "Hz"},
      {"measurement": "change in HR after CNO injection (in words)", "setting": "[2]; DREADDs-expressing animals, 45 min after CNO injection, n=8", "value": "significantly decreased"},
      {"measurement": "MAP after CNO", "setting": "[2]; DREADDs-expressing animals, CNO 1.0 mg/kg IP, 104±2.6 mmHg before CNO, n=8", "value": "93±1.7", "unit": "mmHg"},
      {"measurement": "HR after CNO", "setting": "[2]; DREADDs-expressing animals, CNO 1.0 mg/kg IP, 416±7.1 beats/min before CNO, n=8", "value": "362±10.5", "unit": "beats/min"},
      {"measurement": "change in resting MAP after CNO injection (in words)", "setting": "[2]; oxytocin neuron activated (DREADDs-expressing) animals, 45 min after CNO injection, n=8", "value": "significantly decreased"},
      {"measurement": "effect of CNO on HR in sham animals without DREADDs expression (in words)", "setting": "[2]; sham animals, n=7", "value": "no effect; also recorded: did not significantly change"},
      {"measurement": "effect of CNO on MAP in sham animals without DREADDs expression (in words)", "setting": "[2]; sham animals, n=7", "value": "no effect; also recorded: did not significantly change"}
    ]}
  ]
}
